From PMC7033111, “Rational design of novel benzisoxazole derivatives with acetylcholinesterase inhibitory and serotoninergic 5-HT4 receptors activities for the treatment of Alzheimer’s disease” (Scientific Reports, 2020)
Where “and” joins values, the source holds several entries; their conditions need not be identical. Equal entries are not always repeated. Where two headings read alike, the source gives them in different places.

Tests used:
[1] = biological target: T1, human 5-HT4R (5-HT4(b) receptor membranes) (Homo sapiens, UniProt Q13639); experiment: h5-HT4R competition binding with [3H]-GR113808; details: for inhibition: 0.2 nM [3H]-GR113808
T1 construct: purchased Millipore HTS110M
Protocol: The competition studies used membrane preparations made from proprietary stable recombinant cell lines expressing the 5-HT4(b) receptor to ensure high-level of GPCR surface expression (HTS110M, Millipore). Membranes (2.5 µg protein) were incubated in duplicate at 25 °C for 60 min in the absence or the presence of 10^–6 or 10^–8M of each drug and 0.2 nM [^3H]-GR 113808 (VT 240, ViTrax) in 25 mM Tris buffer (pH 7.4, 25 °C). At the end of the incubation, homogenates were filtered through Whatman GF/C filters (Alpha Biotech) pre-soaked with 0.5% polyethylenimine using a Brandel cell harvester. Filters were subsequently washed three times with 4 mL of ice-cold 25 mM Tris buffer (pH 7.4, 4 °C). Non-specific binding was evaluated in parallel in the presence of 30 μM serotonin.
For some of these compounds, affinity constants were calculated from five-point inhibition curves using the EBDA-Ligand software and expressed as Ki ± SD[41].

[2] = biological target: T2, hAChE (AChE from human erythrocytes) (Homo sapiens, UniProt P22303); experiment: hAChE inhibition, spectrometric Ellman method; type: biochemical; details: for inhibition at 1 µM: 10^−6 M compound; for IC50: Ellman method, n = 2; for inhibition of the enzyme (AChE), in words: statement in discussion
T2 construct: AChE from human erythrocytes; purchased Sigma Aldrich; host or cells: human erythrocytes (tissue-derived enzyme)
Protocol: Inhibitory capacity of compounds on AChE biological activity was evaluated through the use of the spectrometric method of Ellman[39]. Acetylthiocholine and 5,5-dithiobis-(2-nitrobenzoic) acid (DTNB) were purchased from Sigma Aldrich. AChE from human erythrocytes (buffered aqueous solution, ≥500 units/mg protein (BCA), Sigma Aldrich) was diluted in 20 mM HEPES buffer pH 8, 0.1% Triton X-100 such as to have enzyme solution with 0.25 unit/mL enzyme activity. In the procedure, 100 μL of 0.3 mM DTNB dissolved in phosphate buffer pH 7.4 were added into the 96 wells plate followed by 50 μL of test compound solution and 50 μL of enzyme ([…]). After 5 min of preincubation at 25 °C, the reaction was then initiated by the injection of 50 μL of 10 mM acetylthiocholine iodide solution. The hydrolysis of acetylthiocholine was monitored by the formation of yellow 5-thio-2-nitrobenzoate anion as the result of the reaction of DTNB with thiocholine, released by the enzymatic hydrolysis of acetylthiocholine, at a wavelength of 412 nm using a 96-well microplate plate reader (TECAN Infinite M200, Lyon, France). Test compounds were dissolved in analytical grade DMSO. Donepezil was used as a reference standard. The rate of absorbance increase at 412 nm was followed every minute for 10 min. Assays were performed with a blank containing all components except acetylthiocholine, in order to account for non-enzymatic reaction. The reaction slopes were compared and the percent inhibition due to the presence of test compounds was calculated by the following expression: 100 − (vi/v0 × 100) where vi is the rate calculated in the presence of inhibitor and v0 is the enzyme activity.
For the compounds with significant inhibition (≥50%), IC50 values were determined graphically by plotting the % inhibition versus the logarithm of six inhibitor concentrations in the assay solution using the Origin software.

[3] = biological target: T3, HA-tagged human 5-HT4 receptor (Homo sapiens, UniProt Q13639); experiment: cAMP production, competition assay in antagonist mode vs serotonin, transfected COS-7 cells; type: cell-based; details: for 5-HT4 pharmacological profile (antagonism assay): cAMP production
T3 construct: HA; expressed in transfected cells; host or cells: COS-7 cells (ATCC CRL-1651), transient transfection
Description: (§1) Figure 5 Determination of the 5-HT4 pharmacological profiles for compounds 16, 32a and 33 by quantification of cAMP production. (A) Assay to determine the agonism activity (with serotonin and the partial agonist RS-67333 as references). (B) Assay to determine the antagonism activity (with the antagonist GR113808 as reference). Data presented are the mean of three independent experiments performed in duplicate.
(§2) COS-7 cells were purchased from ATCC (ATCC CRL-1651; LGC […], Molsheim, France). T were grown in Dulbecco’s modified Eagle medium (DMEM) supplemented with 10% dialyzed fetal calf serum (dFCS) and antibiotics. Cells were transiently transfected with plasmid encoding HA-tagged human 5-HT4 receptor, then seeded in 96-well plates (35,000 cells/well). 24 hrs after transfection, cells were washed once with 200 µl of HBS (20 mM HEPES; 150 mM NaCl; 4.2 mM KCl; 0.9 mM CaCl2; 0.5 mM MgCl2; 0.1% glucose; 0.1% BSA) and, after HBS removal, exposed to the indicated concentrations of 5-HT4R ligands in the presence of 0.1 mM of the phosphodiesterase inhibitor RO-20-1724, at 37 °C in 100 µl of HBS. After 10 min, cells were then lysed by addition of the same volume of Triton-X100 (0.1%) during 30 min at 37 °C. The competition assay in antagonist mode was performed as follows: after one wash in 200 µl of HBS, cells were exposed to 5-HT4R ligands at twice the indicated concentration, at 37 °C in 50 µl of HBS. After 7 min, serotonin (final concentration of 5.10^−7M) was added in 50 µl of HBS in the presence of the phosphodiesterase inhibitor RO-20-1724 (final concentration of 0.1 mM). After 10 min, cells were then lysed by addition of the same volume of Triton-X100 (0.1%) during 30 min at 37 °C. Quantification of cAMP production was performed by HTRF by using the cAMP Dynamic kit (Cisbio Bioassays) according to the manufacturer’s instructions

[4] = biological target: T3, HA-tagged human 5-HT4 receptor; experiment: cAMP production, agonist mode, transfected COS-7 cells; type: cell-based; details: for Log(EC50): given as Log(EC50); for 5-HT4 pharmacological profile (agonism assay): cAMP production, COS-7 cells
Description: as §1, §2

[5] = 10^−6 M compound, read-out: h5-HT4R % inhibition at 10^−6 M (converted)
[6] = 10^−8 M compound, read-out: h5-HT4R % inhibition at 10^−8 M (converted)
[7] = IC50 (5-HT4R antagonist, cAMP production), COS-7 cells, serotonin 5.10^−7 M, mean of three experiments
[8] = IC50, antagonist mode, individual experiments HP8, HP10, HP11, unit inferred
[9] = Log(IC50), antagonist mode, Moy., printed as Log(IC50), negative
[10] = antagonist mode, individual experiments HP8, HP10, HP11
[11] = agonist mode, individual experiments HP5, HP6, HP7

T2 sequence (P22303 other isoform, or with tags, fused parts or gaps): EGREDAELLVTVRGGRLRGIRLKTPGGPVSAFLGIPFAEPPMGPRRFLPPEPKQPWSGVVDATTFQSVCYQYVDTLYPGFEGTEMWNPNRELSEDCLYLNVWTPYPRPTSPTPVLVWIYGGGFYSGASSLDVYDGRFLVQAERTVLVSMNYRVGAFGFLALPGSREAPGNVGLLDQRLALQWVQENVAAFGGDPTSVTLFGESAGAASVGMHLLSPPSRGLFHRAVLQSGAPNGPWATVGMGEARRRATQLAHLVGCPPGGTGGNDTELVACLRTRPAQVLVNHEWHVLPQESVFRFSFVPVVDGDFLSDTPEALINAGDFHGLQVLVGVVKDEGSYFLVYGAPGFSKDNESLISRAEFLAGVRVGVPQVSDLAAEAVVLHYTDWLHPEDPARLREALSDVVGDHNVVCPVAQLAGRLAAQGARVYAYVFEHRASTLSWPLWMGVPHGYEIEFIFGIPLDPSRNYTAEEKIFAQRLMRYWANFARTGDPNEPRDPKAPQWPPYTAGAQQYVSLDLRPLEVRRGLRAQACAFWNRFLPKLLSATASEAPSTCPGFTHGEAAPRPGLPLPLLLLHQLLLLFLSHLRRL
T1 sequence (Q13639 whole entry): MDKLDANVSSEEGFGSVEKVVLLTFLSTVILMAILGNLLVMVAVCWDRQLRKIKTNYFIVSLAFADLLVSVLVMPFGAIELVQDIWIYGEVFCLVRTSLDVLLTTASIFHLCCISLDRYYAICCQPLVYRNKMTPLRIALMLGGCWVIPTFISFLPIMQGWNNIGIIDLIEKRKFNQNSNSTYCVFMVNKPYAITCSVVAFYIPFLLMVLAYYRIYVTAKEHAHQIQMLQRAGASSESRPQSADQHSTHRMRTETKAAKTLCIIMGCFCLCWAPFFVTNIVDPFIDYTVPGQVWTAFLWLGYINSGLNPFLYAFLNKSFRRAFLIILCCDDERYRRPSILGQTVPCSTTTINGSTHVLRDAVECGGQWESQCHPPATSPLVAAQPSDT
T3 sequence (Q13639 whole entry): as above

Row | Compound | Ki [1] | inhibition [1, 5] | inhibition [1, 6] | inhibition at 1 µM [2] | IC50 [2] | other results
1 | c1ccc2c(OCC3CCN(CC4CCCCC4)CC3)noc2c1 [Compound 11, 3-[[1-(cyclohexylmethyl)-4-piperidyl]methoxy]-1,2-benzoxazole] | 9.6 ± 1.6 nM | 100% | 67% | 24% |  | 
2 | c1ccc(CN2CCC(COc3noc4ccccc34)CC2)cc1 [Compound 12] | 42.4 ± 12.2 nM | 99% | 29% |  |  | 
3 | CC(C)CN1CCC(COc2noc3ccccc23)CC1 [Compound 13] | 20.8 ± 12.5 nM | 100% | 59% | 8% |  | 
4 | COc1cccc2onc(OCC3CCN(CC4CCCCC4)CC3)c12 [Compound 14] | 2.7 ± 0.4 nM | 100% | 99% | 82% | 441 ± 63 nM | 
5 | COc1cccc2onc(OCC3CCN(Cc4ccccc4)CC3)c12 [Compound 15] | 3 ± 0.4 nM | 100% | 94% | 82% | 939 ± 40 nM | 
6 | COc1cccc2onc(OCC3CCN(CC(C)C)CC3)c12 [Compound 16] | 4.1 ± 0.4 nM | 100% | 100% | 23% |  | inhibition of the enzyme (AChE), in words [2]: did not show any inhibition; IC50 [3, 7]: 5.6 ± 2.2 nM; IC50 [3, 8]: 5.07 nM and 2.01 nM and 9.78 nM; IC50 [3, 9]: 5.01 nM; Bott. AMPc ([3]; antagonist mode, Moy.): 31%; Bott. AMPc [3, 10]: 39.69% and 29.62% and 24.98%; 5-HT4 pharmacological profile (antagonism assay) ([3]; COS-7 cells): highly potent antagonist; Top AMPc ([4]; agonist mode, Moy.): 4%; EC50 ([4]; agonist mode, Moy. (mean of HP5-HP7), unit not given): ns; Log(EC50) ([4]; agonist mode, Moy., negative): ns; Top AMPc [4, 11]: 5.63% and 0.00% and 6.91%; Log(EC50) [4, 11]: ns; EC50 ([4]; agonist mode, individual experiments HP5, HP6, HP7, unit not given): ns; 5-HT4 pharmacological profile (agonism assay) [4]: not agonist
7 | c1ccc2c(CCC3CCN(CC4CCCCC4)CC3)noc2c1 [Compound 21] | 139 ± 9 nM | 89% | 4% | 84% | 240 ± 59 nM | 
8 | c1ccc(CN2CCC(CCc3noc4ccccc34)CC2)cc1 [Compound 22] | 263 ± 11 nM | 78% | 8% |  |  | 
9 | CC(C)CN1CCC(CCc2noc3ccccc23)CC1 [Compound 23] |  | 87% | 8% | 11% |  | 
10 | COc1cccc2onc(CCC3CCN(CC4CCCCC4)CC3)c12 [Compound 32a, 3-[2-[1-(cyclohexylmethyl)-4-piperidyl]ethyl]-4-methoxy-1,2-benzoxazole] | 59 ± 8.5 nM | 100% | 13% | 94% | 63.5 ± 19.2 nM | IC50 [3, 7]: 97.2 ± 17.2 nM; IC50 [3, 8]: 129 nM and 69.5 nM and 93.6 nM; IC50 [3, 9]: 100 nM; Bott. AMPc ([3]; antagonist mode, Moy.): 33%; Bott. AMPc [3, 10]: 38.80% and 27.69% and 32.50%; 5-HT4 pharmacological profile (antagonism assay) ([3]; COS-7 cells): antagonists; EC50 ([4]; EC50, agonist mode, Moy. (mean of HP5-HP7), unit inferred): 11300 nM; EC50 ([4]; EC50, agonist mode, individual experiments HP5, HP6, HP7, unit inferred): 13600 nM and 20300 nM; Top AMPc ([4]; agonist mode, Moy.): 22%; Top AMPc [4, 11]: 29.36% and 12.83% and 24.95%; 5-HT4 pharmacological profile (agonism assay) [4]: not agonist
11 | CCOc1cccc2onc(CCC3CCN(CC4CCCCC4)CC3)c12 [Compound 32b] | 80.5 ± 9.9 nM | 100% | 16% | 87% | 200 ± 32 nM | 
12 | CC(C)COc1cccc2onc(CCC3CCN(CC4CCCCC4)CC3)c12 [Compound 32c] | 219 ± 65 nM | 100% | 4% | 42% |  | inhibition of the enzyme (AChE), in words [2]: without AChE inhibition
13 | c1cc(OC2CCCC2)c2c(CCC3CCN(CC4CCCCC4)CC3)noc2c1 [Compound 32d] | 616 ± 67 nM | 100% | 0% | 52% | 1000 ± 84 nM | 
14 | c1ccc(COc2cccc3onc(CCC4CCN(CC5CCCCC5)CC4)c23)cc1 [Compound 32e] | 2920 ± 781 nM | 96% | 0% | 10% |  | 
